According to PubChem BioAssay AID248 (DTP/NCI, 2004):
“And” between values parts separate entries of the source, which are not always exact repeats. Identical values can stand only once. Toxic doses and inconclusive results are not listed. Rule as the data show it: active = T/C of 150% or more; inactive = T/C below 125%.

Test system: L1210 leukemia ip in BDF1 mice, survival T/C
Assay: NCI In Vivo Anticancer Drug Screen. Data for tumor model L1210 Leukemia (intraperitoneal) in B6D2F1 (BDF1) mice
Settings: endpoint: mean survival time, higher = longer survival
In short: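 Antitumor effect is assessed in tumor-bearing animals. Survival in the compound arm is compared with a vehicle-dosed control arm and expressed as their quotient.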

[1] = dose: 100.0 mg/kg/injection, schedule: Q01DX001 (ip), vehicle: saline
[2] = dose: 200.0 mg/kg/injection, schedule: Q01DX001 (ip), vehicle: saline
[3] = dose: 50.0 mg/kg/injection, schedule: Q04DX002 (ip), vehicle: Klucel (hydroxypropylcellulose) (HPC)
[4] = dose: 100.0 mg/kg/injection, schedule: Q04DX003 (ip), vehicle: Klucel (hydroxypropylcellulose) (HPC)
[5] = dose: 200.0 mg/kg/injection, schedule: Q04DX003 (ip), vehicle: Klucel (hydroxypropylcellulose) (HPC)
[6] = dose: 400.0 mg/kg/injection, schedule: Q04DX003 (ip), vehicle: Klucel (hydroxypropylcellulose) (HPC)
[7] = dose: 100.0 mg/kg/injection, schedule: Q01DX009 (ip), vehicle: Klucel (hydroxypropylcellulose) (HPC)
[8] = dose: 200.0 mg/kg/injection, schedule: Q01DX009 (ip), vehicle: Klucel (hydroxypropylcellulose) (HPC)
[9] = dose: 400.0 mg/kg/injection, schedule: Q01DX009 (ip), vehicle: Klucel (hydroxypropylcellulose) (HPC)
[10] = dose: 100.0 mg/kg/injection, schedule: Q04DX002 (ip), vehicle: Klucel (hydroxypropylcellulose) (HPC)
[11] = dose: 200.0 mg/kg/injection, schedule: Q04DX002 (ip), vehicle: Klucel (hydroxypropylcellulose) (HPC)
[12] = dose: 100.0 mg/kg/injection, schedule: Q01DX001 (ip), vehicle: other

Measured: T/C

CC1COCCN1 (centres undefined)
inactive: dose: 50.0 mg/kg/injection, schedule: Q01DX001 (ip), vehicle: saline 91 % of control | [1] 97 % of control | [2] 100 % of control

O=C(COc1ccc(Cl)cc1Cl)Nc1ccc(NC(=O)COc2ccc(Cl)cc2Cl)cc1
inactive: dose: 12.5 mg/kg/injection, schedule: Q01DX009 (ip), vehicle: Klucel (hydroxypropylcellulose) (HPC) 87 % of control | dose: 12.5 mg/kg/injection, schedule: Q04DX002 (ip), vehicle: Klucel (hydroxypropylcellulose) (HPC) 95 % of control | dose: 25.0 mg/kg/injection, schedule: Q01DX009 (ip), vehicle: Klucel (hydroxypropylcellulose) (HPC) 94 % of control | dose: 25.0 mg/kg/injection, schedule: Q04DX002 (ip), vehicle: Klucel (hydroxypropylcellulose) (HPC) 95 % of control | dose: 50.0 mg/kg/injection, schedule: Q01DX009 (ip), vehicle: Klucel (hydroxypropylcellulose) (HPC) 87 % of control | [3] 92 % of control

N#CC(c1cccnc1)N1CCOCC1 (centres undefined)
inactive: dose: 25.0 mg/kg/injection, schedule: Q04DX002 (ip), vehicle: saline with Tween-80 103 % of control | dose: 50.0 mg/kg/injection, schedule: Q04DX002 (ip), vehicle: saline with Tween-80 100 % of control | dose: 100.0 mg/kg/injection, schedule: Q04DX002 (ip), vehicle: saline with Tween-80 96 % of control

CC1CCC(C(O)(C(=O)O)C2CCCCC2)CC1 (centres undefined)
inactive: dose: 75.0 mg/kg/injection, schedule: Q01DX001 (ip), vehicle: other 104 % of control | dose: 150.0 mg/kg/injection, schedule: Q01DX001 (ip), vehicle: other 101 % of control

N#CC1(Cc2ccc(Br)cc2)c2cc(OC(=O)c3ccccc3)ccc2C=CN1C(=O)c1ccccc1 (centres undefined)
inactive: [4] 96 % of control | [5] 99 % of control | [6] 99 % of control

Nc1[nH]c(=O)[nH]c(=O)c1Br
inactive: [7] 97 % of control | [4] 100 % of control | [8] 103 % of control | [5] 100 % of control | [9] 101 % of control | [6] 97 % of control

CSc1ncnc2c1ncn2C1OC(CCC(N)=O)C(O)C1O (centres undefined)
inactive: [3] 98 % of control | [10] 101 % of control and 103 % of control | [11] 95 % of control | dose: 400.0 mg/kg/injection, schedule: Q04DX002 (ip), vehicle: Klucel (hydroxypropylcellulose) (HPC) 95 % of control

Cc1cc(N(C)c2ccccc2)nc(N)n1
inactive: dose: 25.0 mg/kg/injection, schedule: Q01DX Z (ip), vehicle: methylcellulose (MC) 96 % of control

COc1cc2cc[n+]3c(C)c4cc5c(cc4cc3c2cc1OC)OCO5 (tested in a mixture with another compound)
inactive: dose: 2.5 mg/kg/injection, schedule: Q01DX009 (ip), vehicle: saline 109 % of control | dose: 5.0 mg/kg/injection, schedule: Q01DX009 (ip), vehicle: saline 103 % of control | dose: 50.0 mg/kg/injection, schedule: Q01DX009 (ip), vehicle: saline 97 % of control

Cc1ccc(CN(C)N=Nc2ccc(C#N)cc2)cc1
inactive: dose: 100.0 mg/kg/injection, schedule: Q04DX003 (ip), vehicle: saline with Tween-80 96 % of control | dose: 200.0 mg/kg/injection, schedule: Q04DX003 (ip), vehicle: saline with Tween-80 87 % of control | dose: 400.0 mg/kg/injection, schedule: Q04DX003 (ip), vehicle: saline with Tween-80 94 % of control

CCOc1ccc(-c2cc(=O)c3c(OC)c(OC)c(OC)c(OC)c3o2)cc1
inactive: dose: 100.0 mg/kg/injection, schedule: Q01DX001 (sc), vehicle: steriod suspending solution 111 % of control | dose: 200.0 mg/kg/injection, schedule: Q01DX001 (sc), vehicle: steriod suspending solution 96 % of control | dose: 400.0 mg/kg/injection, schedule: Q01DX001 (sc), vehicle: steriod suspending solution 96 % of control

COC(=O)/C=C(\C)Nc1cccc([N+](=O)[O-])c1
inactive: [12] 94 % of control

CCCCCCCCCCCCOCN1C(=O)N(COCCCCCCCCCCCC)C(=O)C(CC)(c2ccccc2)C1=O
inactive: dose: 100.0 mg/kg/injection, schedule: Q01DX009 (ip), vehicle: saline with Tween-80 97 % of control | dose: 200.0 mg/kg/injection, schedule: Q01DX009 (ip), vehicle: saline with Tween-80 94 % of control | dose: 400.0 mg/kg/injection, schedule: Q01DX009 (ip), vehicle: saline with Tween-80 94 % of control

CCc1ccccc1NC(=O)N(Cc1ccccc1)Cc1ccccc1
inactive: [7] 101 % of control | [8] 97 % of control | [9] 96 % of control

CS(=O)(=O)CCC(NC(=O)NCCCl)C(=O)O (centres undefined)
inactive: dose: 100.0 mg/kg/injection, schedule: Q01DX001 (ip), vehicle: Klucel (hydroxypropylcellulose) (HPC) 104 % of control | dose: 200.0 mg/kg/injection, schedule: Q01DX001 (ip), vehicle: Klucel (hydroxypropylcellulose) (HPC) 96 % of control | dose: 400.0 mg/kg/injection, schedule: Q01DX001 (ip), vehicle: Klucel (hydroxypropylcellulose) (HPC) 100 % of control

CC(C)(C)C(=O)/C=C/c1ccc(Cl)cc1
inactive: dose: 100.0 mg/kg/injection, schedule: Q04DX002 (ip), vehicle: gum acacia 93 % of control | dose: 200.0 mg/kg/injection, schedule: Q04DX002 (ip), vehicle: gum acacia 97 % of control | dose: 400.0 mg/kg/injection, schedule: Q04DX002 (ip), vehicle: gum acacia 104 % of control

COc1ccc(C2CCc3cc(OC)c(OC)cc3C2=O)cc1OC (centres undefined)
inactive: dose: 20.0 mg/kg/injection, schedule: Q01DX009 (ip), vehicle: saline with Tween-80 93 % of control | dose: 40.0 mg/kg/injection, schedule: Q01DX009 (ip), vehicle: saline with Tween-80 94 % of control | dose: 80.0 mg/kg/injection, schedule: Q01DX009 (ip), vehicle: saline with Tween-80 90 % of control | dose: 120.0 mg/kg/injection, schedule: Q01DX009 (ip), vehicle: saline with Tween-80 93 % of control | dose: 120.0 mg/kg/injection, schedule: Q01DX009 (ip), vehicle: saline 107 % of control | dose: 240.0 mg/kg/injection, schedule: Q01DX009 (ip), vehicle: saline with Tween-80 96 % of control | dose: 240.0 mg/kg/injection, schedule: Q01DX009 (ip), vehicle: saline 96 % of control | dose: 360.0 mg/kg/injection, schedule: Q01DX009 (ip), vehicle: saline 93 % of control | dose: 545.0 mg/kg/injection, schedule: Q01DX009 (ip), vehicle: saline 91 % of control

CCOC(=O)NCc1ccc(Cl)c(C(=O)O)c1
inactive: [1] 105 % of control | dose: 100.0 mg/kg/injection, schedule: Q04DX003 (ip), vehicle: saline 88 % of control | [2] 94 % of control | dose: 200.0 mg/kg/injection, schedule: Q04DX003 (ip), vehicle: saline 101 % of control | dose: 400.0 mg/kg/injection, schedule: Q01DX001 (ip), vehicle: saline 93 % of control | dose: 400.0 mg/kg/injection, schedule: Q04DX003 (ip), vehicle: saline 93 % of control

Cn1c(CCN=C(N)CSS(=O)(=O)O)nc2ccccc21
inactive: [3] 91 % of control | [10] 105 % of control | [11] 105 % of control and 112 % of control

CCOC(=O)/C(C#N)=C/c1cccn1Cc1cc(OC)cc(OC)c1
inactive: dose: 25.0 mg/kg/injection, schedule: Q04DX002 (ip), vehicle: saline 111 % of control | dose: 50.0 mg/kg/injection, schedule: Q04DX002 (ip), vehicle: saline 101 % of control | dose: 100.0 mg/kg/injection, schedule: Q04DX002 (ip), vehicle: saline 94 % of control

Oc1ccccc1C=NCCN=Cc1ccccc1O.[Zn+2]
inactive: [12] 103 % of control | dose: 200.0 mg/kg/injection, schedule: Q01DX001 (ip), vehicle: other 114 % of control | dose: 400.0 mg/kg/injection, schedule: Q01DX001 (ip), vehicle: other 100 % of control
